Test results from US8067445B2, “N,N-disubstituted aminoalkylbiphenyl antagonists of prostaglandin D2 receptors” (Panmira Pharmaceuticals, LLC, priority 2008, dated 2011).

Legend:
human DP2 receptor = target: T1, human DP2 receptor (Homo sapiens, UniProt Q9Y5Y4); assay: DP2/CRTH2 radioligand binding assay ([3H]PGD2); conditions: [3H]PGD2 binding, membranes of HEK293 cells expressing human DP2; read-out: hDP2
T1 construct: expressed in transfected cells
T1 sequence (Q9Y5Y4 1-395): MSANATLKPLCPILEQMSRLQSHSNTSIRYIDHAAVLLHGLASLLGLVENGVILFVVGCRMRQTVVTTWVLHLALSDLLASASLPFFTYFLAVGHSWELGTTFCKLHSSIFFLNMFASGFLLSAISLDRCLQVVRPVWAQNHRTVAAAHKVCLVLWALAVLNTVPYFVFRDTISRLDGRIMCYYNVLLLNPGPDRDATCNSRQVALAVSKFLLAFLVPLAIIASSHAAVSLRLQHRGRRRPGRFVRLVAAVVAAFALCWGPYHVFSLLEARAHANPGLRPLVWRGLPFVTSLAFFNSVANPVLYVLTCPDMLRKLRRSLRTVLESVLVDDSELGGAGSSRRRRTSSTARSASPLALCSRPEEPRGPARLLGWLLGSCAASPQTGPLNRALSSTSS
Outline: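 Membranes from HEK293 cells stably expressing recombinant human DP2 incubated 60 min at room temperature with 1 nM [3H]PGD2 and compound in pH 7.4 Hepes/MnCl2/EDTA buffer, ± 0.2% human serum albumin. Bound radioactivity measured after filtration; non-specific binding defined with 10 μM PGD2. IC50 from titration curves.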

human DP1 receptor = target: T2, human DP1 receptor (Homo sapiens, UniProt Q13258); assay: DP1 radioligand binding assay ([3H]BWA868C, platelet membranes); conditions: [3H]BWA868C binding, human platelet membranes; read-out: hDP1
T2 construct: tissue Biological Specialty Corporation; host or cells: human platelet membranes
T2 sequence (Q13258 1-359): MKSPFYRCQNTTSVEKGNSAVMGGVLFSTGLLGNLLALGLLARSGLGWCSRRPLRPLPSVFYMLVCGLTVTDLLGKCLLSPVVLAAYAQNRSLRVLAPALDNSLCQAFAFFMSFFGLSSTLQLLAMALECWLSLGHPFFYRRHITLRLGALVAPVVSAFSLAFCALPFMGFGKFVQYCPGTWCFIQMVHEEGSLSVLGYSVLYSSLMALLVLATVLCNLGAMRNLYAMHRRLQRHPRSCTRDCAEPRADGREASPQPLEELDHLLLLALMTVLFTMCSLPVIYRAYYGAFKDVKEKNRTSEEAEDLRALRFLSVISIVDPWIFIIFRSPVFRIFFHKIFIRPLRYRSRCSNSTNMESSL
Outline: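 Human platelet membranes (20 μg protein/well) incubated 60 min at room temperature with 2 nM [3H]BWA868C and compound in 50 mM Hepes, 10 mM MnCl2, 1 mM EDTA, pH 7.4, ± 0.2% human serum albumin. Bound radioactivity measured after filtration; nonspecific binding defined with 10 μM BWA868C; IC50 from titration curves.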

[1] = target: T3, recombinant human CRTH2 receptor (Homo sapiens, UniProt Q9Y5Y4); assay: GTPγS binding assay; type: biochemical; conditions: +HSA (0.2% human serum albumin), 80 nM PGD2, CHO cell membranes; read-out: hDP2 GTPγS μM (+HSA)
T3 construct: expressed in transfected cells
T3 sequence (Q9Y5Y4 1-395): T1 sequence (Q9Y5Y4 1-395)
Description: The ability of a compound to inhibit binding of GTP to DP2 is assessed via a membrane GTPγS assay. CHO cells stably expressing the recombinant human CRTH2 receptor are resuspended in 10 mM Hepes, 7.4 containing 1 mM DTT, lysed and centrifuged at 75,000×g to pellet the membranes. The membranes are resuspended in 10 mM Hepes, 7.4 containing 1 mM DTT and 10% glycerol. […] The reactions are terminated by rapid filtration through Whatman GF/B glass fibre filter plates. The filter plates are washed 3 times with 1 ml cold Assay Buffer and dried. Scintillant is then added to the plates and the radioactivity retained on the filters is determined on a Packard TopCount (Perkin Elmer). Specific binding is determined as total radioactive binding minus non-specific binding in the absence of the ligand (80 nM PGD2). IC50s were determined using Graphpad prism analysis of drug titration curves.

Row | IC50 (human DP2 receptor) | IC50 (human DP1 receptor) | IC50 [1] | SMILES
1 | < 300 nM | 1000 to 30000 nM | < 0.3 µM | COC(=O)N(CCc1ccccc1)Cc1cc(C(F)(F)F)ccc1-c1cc(CC(=O)O)ccc1OC [Compound 1-25, {6-Methoxy-2′-[(methoxycarbonyl-phenethyl-amino)-methyl]-4′-trifluoromethyl-biphenyl-3-yl}-acetic acid]
2 | < 300 nM | 1000 to 30000 nM | < 0.3 µM | COC(=O)N(Cc1cc(C(F)(F)F)ccc1-c1cc(CC(=O)O)ccc1OC)C1Cc2ccccc2C1 [Compound 1-26, {2′-[(Indan-2-yl-methoxycarbonyl-amino)-methyl]-6-methoxy-4′-trifluoromethyl-biphenyl-3-yl}-acetic acid]
3 | < 300 nM | 1000 to 30000 nM | < 0.3 µM | CCN(Cc1cc(C(F)(F)F)ccc1-c1cc(CC(=O)O)ccc1OC)C(=O)Nc1ccccc1Br [Compound 1-47, {2′-[3-(2-Bromo-phenyl)-1-ethyl-ureidomethyl]-6-methoxy-4′-trifluoromethyl-biphenyl-3-yl}-acetic acid]
4 | < 300 nM | – | < 0.3 µM | CCN(Cc1cc(C(F)(F)F)ccc1-c1cc(C(C)C(=O)O)ccc1OC)C(=O)NCc1ccccc1 (stereo not drawn) [Compound 1-222, 2-[2′-(3-Benzyl-1-ethyl-ureidomethyl)-6-methoxy-4′-trifluoromethyl-biphenyl-3-yl]-propionic acid]
5 | < 300 nM | – | < 0.3 µM | CCN(Cc1cc(C(F)(F)F)ccc1-c1cc([C@@H](C)C(=O)O)ccc1OC)C(=O)C1CC1 [Compound 1-224, (R)-2-{2′-[(Cyclopropanecarbonyl-ethyl-amino)-methyl]-6-methoxy-4′-trifluoromethyl-biphenyl-3-yl}-propionic acid]
6 | < 300 nM | – | < 0.3 µM | CCOc1ccc(-c2ccc(-c3cc(CC(=O)O)ccc3OC)c(CN(CC)C(=O)NCc3ccccc3)c2)cn1 [Compound 1-228, [2′-(3-Benzyl-1-ethyl-ureidomethyl)-4′-(6-ethoxy-pyridin-3-yl)-6-methoxy-biphenyl-3-yl]-acetic acid]
7 | < 300 nM | – | < 0.3 µM | CCN(Cc1cc(-c2cnn(C)c2)ccc1-c1cc(CC(=O)O)ccc1OC)C(=O)C1CC1 [Compound 1-233, [2′-[(Cyclopropanecarbonyl-ethyl-amino)-methyl]-6-methoxy-4′-(1-methyl-1H-pyrazol-4-yl)-biphenyl-3-yl]-acetic acid]
8 | < 300 nM | – | < 0.3 µM | CCN(Cc1cc(-c2cnn(C)c2)ccc1-c1cc(CC(=O)O)ccc1OC)C(=O)NCc1ccccc1 [Compound 1-234, [2′-(3-Benzyl-1-ethyl-ureidomethyl)-6-methoxy-4′-(1-methyl-1H-pyrazol-4-yl)-biphenyl-3-yl]-acetic acid]
9 | < 300 nM | – | < 0.3 µM | CCN(Cc1cc(C(F)(F)F)ccc1-c1cc([C@@H](C)C(=O)O)cc(C(F)(F)F)c1)C(=O)C1CC1 [Compound 1-237, (R)-2-{2′-[(Cyclopropanecarbonyl-ethyl-amino)-methyl]-5,4′-bis-trifluoromethyl-biphenyl-3-yl}-propionic acid]

The next lines start with the compound.

Row | SMILES | IC50 (human DP2 receptor) | IC50 (human DP1 receptor) | IC50 [1]
10 | COc1ccc(CC(=O)O)cc1-c1ccc(C(F)(F)F)cc1CN(CC(C)(C)C)C(C)=O [Compound 1-3, (2′-{[Acetyl-(2,2-dimethyl-propyl)-amino]-methyl}-6-methoxy-4′-trifluoromethyl-biphenyl-3-yl)-acetic acid] | < 300 nM | 1000 to 30000 nM | < 0.3 µM
11 | COc1ccc(CC(=O)O)cc1-c1ccc(C(F)(F)F)cc1CN(CCO)C(C)=O [Compound 1-5, (2′-{[Acetyl-(2-hydroxy-ethyl)-amino]-methyl}-6-methoxy-4′-trifluoromethyl-biphenyl-3-yl)-acetic acid] | < 300 nM | 1000 to 30000 nM | 0.3 to 1 µM
12 | COCCN(Cc1cc(C(F)(F)F)ccc1-c1cc(CC(=O)O)ccc1OC)C(C)=O [Compound 1-6, (2′-{[Acetyl-(2-methoxy-ethyl)-amino]-methyl}-6-methoxy-4′-trifluoromethyl-biphenyl-3-yl)-acetic acid] | < 300 nM | 1000 to 30000 nM | < 0.3 µM
13 | COc1ccc(CC(=O)O)cc1-c1ccc(C(F)(F)F)cc1CN(CCN(C)C)C(C)=O [Compound 1-7, (2′-{[Acetyl-(2-dimethylamino-ethyl)-amino]-methyl}-6-methoxy-4′-trifluoromethyl-biphenyl-3-yl)-acetic acid] | 300 to 1000 nM | 1000 to 30000 nM | 0.3 to 1 µM
14 | COc1ccc(CC(=O)O)cc1-c1ccc(C(F)(F)F)cc1CN(CC(=O)O)C(C)=O [Compound 1-8, {2′-[(Acetyl-carboxymethyl-amino)-methyl]-6-methoxy-4′-trifluoromethyl-biphenyl-3-yl}-acetic acid] | 1000 to 30000 nM | 1000 to 30000 nM | 1 to 30 µM
15 | COc1ccc(CC(=O)O)cc1-c1ccc(C(F)(F)F)cc1CN(CC(N)=O)C(C)=O [Compound 1-9, {2′-[(Acetyl-carbamoylmethyl-amino)-methyl]-6-methoxy-4′-trifluoromethyl-biphenyl-3-yl}-acetic acid] | 300 to 1000 nM | 1000 to 30000 nM | 0.3 to 1 µM
16 | COc1ccc(CC(=O)O)cc1-c1ccc(C(F)(F)F)cc1CN(C(C)=O)[C@@H]1CCc2ccccc21 [Compound 1-13, {2′-[((R)-Acetyl-indan-1-yl-amino)-methyl]-6-methoxy-4′-trifluoromethyl-biphenyl-3-yl}-acetic acid] | 300 to 1000 nM | < 300 nM | 0.3 to 1 µM
17 | COc1ccc(CC(=O)O)cc1-c1ccc(C(F)(F)F)cc1CN(C(C)=O)[C@H]1CCc2ccccc21 [Compound 1-14, {2′-[((S)-Acetyl-indan-1-yl-amino)-methyl]-6-methoxy-4′-trifluoromethyl-biphenyl-3-yl}-acetic acid] | < 300 nM | 1000 to 30000 nM | < 0.3 µM
18 | COc1ccc(CC(=O)O)cc1-c1ccc(C(F)(F)F)cc1CN(C(C)=O)C1Cc2ccccc2C1 [Compound 1-17, {2′-[(Acetyl-indan-2-yl-amino)-methyl]-6-methoxy-4′-trifluoromethyl-biphenyl-3-yl}-acetic acid] | < 300 nM | 1000 to 30000 nM | < 0.3 µM
19 | COc1ccc(CC(=O)O)cc1-c1ccc(C(F)(F)F)cc1CN(C(C)=O)c1ccccc1 [Compound 1-18, {2′-[(Acetyl-phenyl-amino)-methyl]-6-methoxy-4′-trifluoromethyl-biphenyl-3-yl}-acetic acid] | 300 to 1000 nM | 1000 to 30000 nM | 0.3 to 1 µM
20 | COc1ccc(CC(=O)O)cc1-c1ccc(C(F)(F)F)cc1CN(Cc1ccccc1)C(C)=O [Compound 1-19, {2′-[(Acetyl-benzyl-amino)-methyl]-6-methoxy-4′-trifluoromethyl-biphenyl-3-yl}-acetic acid] | < 300 nM | 1000 to 30000 nM | < 0.3 µM
21 | COc1ccc(CC(=O)O)cc1-c1ccc(C(F)(F)F)cc1CN(CCc1ccccc1)C(C)=O [Compound 1-20, {2′-[(Acetyl-phenethyl-amino)-methyl]-6-methoxy-4′-trifluoromethyl-biphenyl-3-yl}-acetic acid] | < 300 nM | 1000 to 30000 nM | < 0.3 µM
22 | CCN(Cc1cc(C(F)(F)F)ccc1-c1cc(C(C)C(=O)O)ccc1OC)C(C)=O (stereo not drawn) [Compound 1-21, 2-{2′-[(Acetyl-ethyl-amino)-methyl]-6-methoxy-4′-trifluoromethyl-biphenyl-3-yl}-propionic acid] | < 300 nM | 1000 to 30000 nM | < 0.3 µM
23 | COC(=O)N(Cc1ccccc1)Cc1cc(C(F)(F)F)ccc1-c1cc(CC(=O)O)ccc1OC [Compound 1-24, {2′-[(Benzyl-methoxycarbonyl-amino)-methyl]-6-methoxy-4′-trifluoromethyl-biphenyl-3-yl}-acetic acid] | < 300 nM | 1000 to 30000 nM | < 0.3 µM
